Laboratory results as given in patent US8633183B2 (priority 2010, dated 2014).

Biological target: PI3Kalpha (Homo sapiens (Human), UniProt P42336)
Conditions: read-out: IC50 PI3K
Procedure: Plot the concentration of each compound versus the emission ratio. […] Determination of IC50 values can be obtained by curve fitting (sigmoidal dose response, variable slope) using Prism software from GraphPad).
Method Type: Filter-Binding-Assay
Compounds are serially diluted in assay buffer+6% DMSO and 10 μl of each dilution is added per well of a 96-well plate (compounds are tested in duplicates) and mixed with 30 μl of the lipid vesicles containing PDGFR-Peptide (0.5 μM final) and PI3K alpha (25 ng/well final). The mixture is then incubated for 20 minutes at room temperature. Subsequently, 20 μl of assay buffer containing 3 μM cold ATP and 0.5 μCi/20 μl 33P-ATP are added. The plates are then incubated at room temperature for 120 minutes (shaking with 300 rpm). The reaction mix is transferred onto filter plates using “filtermate harvester” from Packard: filter plates are rinsed with PBS, then the reaction mix is filtered onto the filter plate, washed 5 times with PBS and are allowed to dry for 30-60 minutes at 50° C.
As positive control serve wells containing vehicle controls (1% DMSO in assay buffer), showing non-inhibited kinase activity (high values). Wells containing assay buffer instead of enzyme can serve as control for background activity (low values).
Calculate IC50 values using the Smiley program (based on GrapPad Prism)

Sequence of PI3Kalpha (P42336 whole entry, looked up): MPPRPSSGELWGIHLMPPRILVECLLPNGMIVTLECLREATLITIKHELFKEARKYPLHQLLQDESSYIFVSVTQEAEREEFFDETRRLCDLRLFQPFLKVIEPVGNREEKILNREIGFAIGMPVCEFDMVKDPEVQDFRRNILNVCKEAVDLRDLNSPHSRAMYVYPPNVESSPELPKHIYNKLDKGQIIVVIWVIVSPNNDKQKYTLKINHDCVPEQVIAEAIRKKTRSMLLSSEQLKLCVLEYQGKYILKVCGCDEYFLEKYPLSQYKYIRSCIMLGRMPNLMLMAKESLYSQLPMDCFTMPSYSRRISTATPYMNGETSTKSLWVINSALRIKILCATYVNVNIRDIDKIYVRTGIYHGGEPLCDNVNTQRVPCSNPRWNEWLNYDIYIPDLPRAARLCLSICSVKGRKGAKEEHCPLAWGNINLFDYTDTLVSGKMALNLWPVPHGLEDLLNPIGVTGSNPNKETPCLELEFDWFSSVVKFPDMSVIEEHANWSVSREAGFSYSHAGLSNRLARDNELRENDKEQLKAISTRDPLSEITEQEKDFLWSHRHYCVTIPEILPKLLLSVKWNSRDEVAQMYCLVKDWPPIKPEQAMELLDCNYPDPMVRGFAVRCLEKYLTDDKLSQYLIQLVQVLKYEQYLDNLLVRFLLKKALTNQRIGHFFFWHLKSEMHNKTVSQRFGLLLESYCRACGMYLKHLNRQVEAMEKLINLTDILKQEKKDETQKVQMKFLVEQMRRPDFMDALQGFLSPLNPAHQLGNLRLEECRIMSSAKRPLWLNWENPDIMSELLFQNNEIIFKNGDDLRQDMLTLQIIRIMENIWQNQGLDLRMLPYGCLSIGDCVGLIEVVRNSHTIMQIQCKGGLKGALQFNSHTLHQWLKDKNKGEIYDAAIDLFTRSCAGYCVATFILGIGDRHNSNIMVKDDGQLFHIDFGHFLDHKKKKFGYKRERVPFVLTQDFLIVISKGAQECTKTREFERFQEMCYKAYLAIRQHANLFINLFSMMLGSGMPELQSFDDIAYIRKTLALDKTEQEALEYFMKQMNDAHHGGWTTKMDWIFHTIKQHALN

Row | SMILES | IC50
1 | CCc1ncnc(-c2cc(Cl)c(C(=O)N3CC[C@@H](N(C)C)C3)c(Cl)c2)c1C#Cc1ccc(N)nc1 [Example E-196] | 235 nM
2 | CCc1ncnc(-c2cc(Cl)c(C(=O)N3CCN(C)CC3)c(Cl)c2)c1C#Cc1ccc(N)nc1 [Example E-197] | 123 nM
3 | CCc1ncnc(-c2cc(Cl)c(C(=O)N3CCN(CC)CC3)c(Cl)c2)c1C#Cc1ccc(N)nc1 [Example E-198] | 90.9 nM
4 | CCc1ncnc(-c2cc(Cl)c(C(=O)N3CCN(CC(C)(C)O)CC3)c(Cl)c2)c1C#Cc1ccc(N)nc1 [Example E-199] | 74.6 nM
5 | CCc1ncnc(-c2cc(Cl)c(C(=O)N3CCC(C(C)O)CC3)c(Cl)c2)c1C#Cc1ccc(N)nc1 (stereo not shown) [Example E-200] | 58.8 nM
6 | CCc1ncnc(-c2cc(Cl)c(C(=O)N3CCC(C(C)(C)O)CC3)c(Cl)c2)c1C#Cc1ccc(N)nc1 [Example E-201] | 98.1 nM
7 | CCc1ncnc(-c2cc(Cl)c(C(=O)N3CCN(CC(F)F)CC3)c(Cl)c2)c1C#Cc1ccc(N)nc1 [Example E-202] | 85.8 nM
8 | CCc1ncnc(-c2cc(Cl)c(C(=O)N3CCC(C)(O)CC3)c(Cl)c2)c1C#Cc1ccc(N)nc1 [Example E-203] | 95.2 nM
9 | CCc1ncnc(-c2cc(Cl)c(C(=O)N3CCC(CO)CC3)c(Cl)c2)c1C#Cc1ccc(N)nc1 [Example E-205] | 48.9 nM
10 | CCc1ncnc(-c2cc(Cl)c(C(=O)N3CCN(CCC#N)CC3)c(Cl)c2)c1C#Cc1ccc(N)nc1 [Example E-206] | 71.8 nM
11 | CCc1ncnc(-c2cc(F)c(C(=O)N3CCN4CCC[C@H]4C3)c(F)c2)c1C#Cc1ccc(NC)nc1 [Example E-207] | 581 nM
12 | CCc1ncnc(-c2cc(F)c(C(=O)N3CCN(C)C(=O)C3)c(F)c2)c1C#Cc1ccc(NC)nc1 [Example E-208] | 176 nM
13 | CCc1ncnc(-c2cc(F)c(C(=O)N3CC[C@@H](N(C)C)C3)c(F)c2)c1C#Cc1ccc(NC)nc1 [Example E-209] | 546 nM
14 | CCc1ncnc(-c2cc(F)c(C(=O)N3CCN(C)CC3)c(F)c2)c1C#Cc1ccc(NC)nc1 [Example E-210] | 388 nM
15 | CCc1ncnc(-c2cc(F)c(C(=O)N3CCN(CC)CC3)c(F)c2)c1C#Cc1ccc(NC)nc1 [Example E-211] | 472 nM
16 | CCc1ncnc(-c2cc(F)c(C(=O)N3CCN(CC(C)(C)O)CC3)c(F)c2)c1C#Cc1ccc(NC)nc1 [Example E-212] | 645 nM
17 | CCc1ncnc(-c2cc(F)c(C(=O)N3CCC(C(C)O)CC3)c(F)c2)c1C#Cc1ccc(NC)nc1 (stereo not shown) [Example E-213] | 465 nM
18 | CCc1ncnc(-c2cc(F)c(C(=O)N3CCC(C(C)(C)O)CC3)c(F)c2)c1C#Cc1ccc(NC)nc1 [Example E-214] | 600 nM
19 | CCc1ncnc(-c2cc(F)c(C(=O)N3CCN(C4CCOCC4)CC3)c(F)c2)c1C#Cc1ccc(NC)nc1 [Example E-216] | 466 nM
20 | CCc1ncnc(-c2cc(F)c(C(=O)N3CCN(CC(F)F)CC3)c(F)c2)c1C#Cc1ccc(NC)nc1 [Example E-217] | 327 nM
21 | CCc1ncnc(-c2cc(F)c(C(=O)N3CCC(C)(O)CC3)c(F)c2)c1C#Cc1ccc(NC)nc1 [Example E-218] | 362 nM
22 | CCc1ncnc(-c2cc(F)c(C(=O)N3CCN(C=O)CC3)c(F)c2)c1C#Cc1ccc(NC)nc1 [Example E-219] | 163 nM
23 | CCc1ncnc(-c2cc(F)c(C(=O)N3CCC(CO)CC3)c(F)c2)c1C#Cc1ccc(NC)nc1 [Example E-220] | 293 nM
24 | CCc1ncnc(-c2cc(F)c(C(=O)N3CCN(CCC#N)CC3)c(F)c2)c1C#Cc1ccc(NC)nc1 [Example E-221] | 213 nM

Row | SMILES | IC50
25 | CCc1ncnc(-c2ccc(C(=O)N3CCN(C(C)C)CC3)c(OC(F)(F)F)c2)c1C#Cc1ccc(N)nc1 [Example E-222] | 530 nM
26 | CCc1ncnc(-c2ccc(C(=O)N3CCN4CCC[C@H]4C3)c(OC(F)(F)F)c2)c1C#Cc1ccc(N)nc1 [Example E-223] | 157 nM
27 | CCc1ncnc(-c2ccc(C(=O)N3CC[C@@H](N(C)C)C3)c(OC(F)(F)F)c2)c1C#Cc1ccc(N)nc1 [Example E-224] | 402 nM
28 | CCc1ncnc(-c2ccc(C(=O)N3CCN(C)CC3)c(OC(F)(F)F)c2)c1C#Cc1ccc(N)nc1 [Example E-225] | 224 nM
29 | CCc1ncnc(-c2ccc(C(=O)N3CCN(CC)CC3)c(OC(F)(F)F)c2)c1C#Cc1ccc(N)nc1 [Example E-226] | 196 nM
30 | CCc1ncnc(-c2ccc(C(=O)N3CCC(N4CCOCC4)CC3)c(OC(F)(F)F)c2)c1C#Cc1ccc(N)nc1 [Example E-228] | 356 nM
31 | CCc1ncnc(-c2ccc(C(=O)N3CCN(C)CC3)c(C(F)(F)F)c2)c1C#Cc1ccc(N)nc1 [Example E-229] | 174 nM
32 | CCc1ncnc(-c2ccc(C(=O)N3CCN(C(C)C)CC3)c(C(F)(F)F)c2)c1C#Cc1ccc(N)nc1 [Example E-230] | 279 nM
33 | CCc1ncnc(-c2ccc(C(=O)N3CCN(CC)CC3)c(C(F)(F)F)c2)c1C#Cc1ccc(N)nc1 [Example E-231] | 185 nM
34 | CCc1ncnc(-c2ccc(C(=O)N3CCC(C(C)(C)O)CC3)c(C(F)(F)F)c2)c1C#Cc1ccc(N)nc1 [Example E-232] | 142 nM
35 | CCc1ncnc(-c2cc(F)c(C(=O)N3CCN(C)CC3)c(Cl)c2)c1C#Cc1ccc(N)nc1 [Example E-233] | 89.8 nM
36 | CCc1ncnc(-c2cc(F)c(C(=O)N3CCN(C(C)C)CC3)c(Cl)c2)c1C#Cc1ccc(N)nc1 [Example E-234] | 263 nM
37 | CCc1ncnc(-c2cc(F)c(C(=O)N3CCN(CC)CC3)c(Cl)c2)c1C#Cc1ccc(N)nc1 [Example E-235] | 178 nM
38 | CCc1ncnc(-c2cc(F)c(C(=O)N3CCC(N4CCOCC4)CC3)c(Cl)c2)c1C#Cc1ccc(N)nc1 [Example E-236] | 141 nM
39 | CCc1ncnc(-c2cc(F)c(C(=O)N3CCC(C(C)(C)O)CC3)c(Cl)c2)c1C#Cc1ccc(N)nc1 [Example E-237] | 121 nM
40 | CCc1ncnc(-c2cc(F)c(C(=O)N3CCN4CCC[C@H]4C3)c(Cl)c2)c1C#Cc1ccc(N)nc1 [Example E-238] | 175 nM
41 | CCc1ncnc(-c2cc(F)c(C(=O)N3CCN(C)C(=O)C3)c(Cl)c2)c1C#Cc1ccc(N)nc1 [Example E-239] | 46.2 nM
42 | CCc1ncnc(-c2cc(F)c(C(=O)N3CCN(CC(C)(C)O)CC3)c(Cl)c2)c1C#Cc1ccc(N)nc1 [Example E-240] | 115 nM
43 | CCc1ncnc(-c2cc(F)c(C(=O)N3CCC(C(C)O)CC3)c(Cl)c2)c1C#Cc1ccc(N)nc1 (stereo not shown) [Example E-241] | 91.5 nM
44 | CCc1ncnc(-c2cc(F)c(C(=O)N3CCC(CO)CC3)c(Cl)c2)c1C#Cc1ccc(N)nc1 [Example E-242] | 120 nM
45 | CCc1ncnc(-c2cc(F)c(C(=O)N3CCN(CCC#N)CC3)c(Cl)c2)c1C#Cc1ccc(N)nc1 [Example E-243] | 110 nM
46 | CCc1ncnc(-c2ccc(C(=O)N3CCN(CCNS(C)(=O)=O)CC3)c(F)c2)c1C#Cc1ccc(N)nc1 [Example E-246] | 81.3 nM
47 | CCc1ncnc(-c2ccc(C(=O)N3CCn4c(C)cnc4C3)c(F)c2)c1C#Cc1ccc(N)nc1 [Example E-247] | 95.4 nM
48 | CCc1ncnc(-c2ccc(C(=O)N3CCn4cnnc4C3)c(F)c2)c1C#Cc1ccc(N)nc1 [Example E-248] | 50.8 nM

Row | SMILES | IC50
49 | CCc1ncnc(-c2ccc(C(=O)N3CCn4ccnc4C3)c(F)c2)c1C#Cc1ccc(N)nc1 [Example E-249] | 60.5 nM
50 | CCc1ncnc(-c2ccc(C(=O)N3CCN(CCCS(C)(=O)=O)CC3)c(F)c2)c1C#Cc1ccc(N)nc1 [Example E-250] | 92.2 nM
51 | CCc1ncnc(-c2ccc(C(=O)N3CCC4(CC3)CNC4)c(Cl)c2)c1C#Cc1ccc(N)nc1 [Example E-251] | 90.7 nM
52 | CCc1ncnc(-c2ccc(C(=O)N3CCN(C4CCC4)CC3)c(Cl)c2)c1C#Cc1ccc(N)nc1 [Example E-252] | 48.2 nM
53 | CCc1ncnc(-c2ccc(C(=O)N3CCN(CCNS(C)(=O)=O)CC3)c(Cl)c2)c1C#Cc1ccc(N)nc1 [Example E-253] | 30.6 nM
54 | CCc1ncnc(-c2ccc(C(=O)N3CCn4c(C)cnc4C3)c(Cl)c2)c1C#Cc1ccc(N)nc1 [Example E-254] | 31.6 nM
55 | CCc1ncnc(-c2ccc(C(=O)N3CCn4cnnc4C3)c(Cl)c2)c1C#Cc1ccc(N)nc1 [Example E-255] | 4.83 nM
56 | CCc1ncnc(-c2ccc(C(=O)N3CCn4ccnc4C3)c(Cl)c2)c1C#Cc1ccc(N)nc1 [Example E-256] | 23 nM
57 | CCc1ncnc(-c2ccc(C(=O)N3CCN(CCCS(C)(=O)=O)CC3)c(Cl)c2)c1C#Cc1ccc(N)nc1 [Example E-257] | 58.3 nM
58 | CCNc1ccc(C#Cc2c(CC)ncnc2-c2ccc(C(=O)N3CCN(CCCS(C)(=O)=O)CC3)c(F)c2)cn1 [Example E-258] | 110 nM
59 | CCNc1ccc(C#Cc2c(CC)ncnc2-c2ccc(C(=O)N3CCC(N4CCOCC4)CC3)c(F)c2)cn1 [Example E-259] | 209 nM
60 | CCNc1ccc(C#Cc2c(CC)ncnc2-c2ccc(C(=O)N3CCn4ccnc4C3)c(F)c2)cn1 [Example E-260] | 63.8 nM
61 | CCNc1ccc(C#Cc2c(CC)ncnc2-c2ccc(C(=O)N3CCn4cnnc4C3)c(F)c2)cn1 [Example E-261] | 44.3 nM
62 | CCNc1ccc(C#Cc2c(CC)ncnc2-c2ccc(C(=O)N3CCn4c(C)cnc4C3)c(F)c2)cn1 [Example E-262] | 134 nM
63 | CCNc1ccc(C#Cc2c(CC)ncnc2-c2ccc(C(=O)N3CCC4(CC3)COC4)c(F)c2)cn1 [Example E-263] | 204 nM
64 | CCNc1ccc(C#Cc2c(CC)ncnc2-c2ccc(C(=O)N3CCC4(CC3)CN(C(=O)OC(C)(C)C)C4)c(F)c2)cn1 [Example E-266] | 560 nM
65 | CCNc1ccc(C#Cc2c(CC)ncnc2-c2ccc(C(=O)N3CC4(CN(C(=O)OC(C)(C)C)C4)C3)c(F)c2)cn1 [Example E-267] | 421 nM
66 | CCc1ncnc(-c2ccc(C(=O)N3CCC4(CC3)CNC4)c(F)c2)c1C#Cc1ccc(N)nc1 [Example E-268] | 242 nM
67 | CCc1ncnc(-c2ccc(C(=O)N3CC4(CNC4)C3)c(F)c2)c1C#Cc1ccc(N)nc1 [Example E-269] | 252 nM
68 | CCc1ncnc(-c2ccc(C(=O)N3CC4(CNC4)C3)c(Cl)c2)c1C#Cc1ccc(N)nc1 [Example E-270] | 328 nM
69 | CCc1ncnc(-c2ccc(C(=O)N3CCN(C4COC4)CC3)c(F)c2)c1C#Cc1ccc(N)nc1 [Example E-271] | 113 nM
70 | CCc1ncnc(-c2ccc(C(=O)N3CCC(CN(C)C)CC3)c(F)c2)c1C#Cc1ccc(N)nc1 [Example E-272] | 475 nM
